Consider 4 substances from patent US7199216B1, “Peptide constructs for treating autoimmune and related diseases” (Cel-Sci Corporation, priority 1999, dated 2007).

No end group written: not given here.

The nature of assay [1]: Immunogenicity of TCBL peptides judged by development of antibodies that react to the peptides. To be noted: judged by the lack of developing antibodies that react to these peptides. The assay is classed as in vivo. The text has this: (§1) The antigenic portion My-1 of these constructs is immunogenic in several strains of mice and in rabbits.
Assay [2] concerns several strains of mice. The experiment in a line: Immunogenicity in mice. The assay is classed as in vivo.
Text: as §1

The subject of assay [3] is rabbits. Description: Immunogenicity in rabbits. The assay is classed as in vivo.
Text: as §1

For assay [4], the system named is A/J strain of mice. As to conditions: injected in the presence of adjuvant; cited from earlier work.

With “Asn Gly Gln Glu Glu (Xaa) Ala Gly Val Val Ser Thr Gly Leu Ile [m-G]”, the immunogenicity result in assay [1] was “only poorly immunogenic”.
The same measure, in the same setting: to “Asp Leu Leu Lys Asn Gly Glu Arg (Xaa) Glu Lys Val Glu [m-J]” belongs “only poorly immunogenic”.
Take “DSAFDVLSFTAEEKAGVYK [myocardiogenic peptide derived from murine cardiac myosin heavy chain (amino acids 334–352)]”: the immunogenicity result in assay [2] and in assay [3] was “immunogenic” in each case. Besides, in assay [4], the induction of myocarditis entry is on record as “induce severe myocarditis”.
For the substance “NGQEEKAGVVSTGLI (peptide G) [non-modified TCBL from the beta-2 domain of HLA/MHC class II molecule]”, the immunogenicity entry in assay [1] is recorded as “only poorly immunogenic”.
